Entries after “also recorded” stand apart in the source; their conditions may differ.

Here are results for 1 molecule from patent publication US11479601B2, “Antibodies specific to Sonic Hedgehog and method of use thereof” (The Regents of the University of California, priority 2016, dated 2022).

In assay [1] the test system is Shh+ cells (A549). The assay can be described thus: Shh rate by flow cytometry in drug-treated A549 cells. In kind it is cell-based, human. The method, then: FACS (1:40). The secondary antibody was a donkey anti-mouse FITC-linked antibody (ab97029, 1:100, Abcam). For cell analysis after treatment assays (chemotherapy or GDC0449), a dead cell marker (SytoxRed, Invitrogen) was also used. For human fresh samples, an anti-CD45 APC-linked antibody (ab28106, 1:100, Abcam), and a dead cells marker (SytoxRed, Invitrogen) were added. For staining of stable transfected cell lines, mouse anti-HA antibody (Abcam, 1:100) and rabbit anti-FLAG antibody (Cell Signaling; 1:400) were used. Corresponding secondary antibodies were donkey anti-mouse AlexaFluor647 (Invitrogen, 1:1000) and donkey anti-rabbit AlexFluor594 (Invitrogen, 1:1000) antibodies. Flow cytometry analyses were performed on AccuriC6 flow cytometer (BD Biosciences), and FACS on FACSAria II (BD Biosciences). Flow analyses were based at least on 200,000 cells, and each test was made at least in triplicate. For all experiments, a negative control with cells processed without primary antibody was used. Sorted cells (Shh+ and Shh− cells) were collected on fresh media, and seeded on culture plates or freezed at −80° C. according to further analyses. Flow cytometry analysis was performed without membrane permeabilization prior to labeling the cells, unless otherwise indicated (e.g., FIG. 1D). Cisplatin was purchased from Sigma, and freshly reconstituted in PBS (2 g/1). Docetaxel was purchased from Tocris Bioscience, reconstituted in DMSO (5 g/1 stock dilution at −20° C.; further dilution in fresh culture medium) for in vitro assays, or reconstituted in ethanol/polysorbate 80 (1:1; 5 g/1 stock dilution at −20° C.; further dilution in PBS) for in vivo assays. GDC0449 was purchased from Selleck Chemicals, and reconstituted in DMSO (30 mM stock dilution). Shh human recombinant protein was obtained from EBioscience, and used at 1200 ng/ml. The mouse Shh-C-terminal antibody (mentioned above) was used for flow cytometry and FACS (1:40). The secondary antibody was a donkey anti-mouse FITC-linked antibody (ab97029, 1:100, Abcam). For cell analysis after treatment assays (chemotherapy or GDC0449), a marker for dead cells (SytoxRed®, Invitrogen) was also used. For fresh human samples, an anti-CD45 APC-linked antibody (ab28106, 1:100, Abcam) was added, and a marker for dead cells (SytoxRed®, Invitrogen). For staining of stable transfected cell lines, a mouse anti-HA antibody (Abcam, 1:100) and a rabbit anti-FLAG antibody (Cell Signaling; 1:400) were used. Corresponding secondary antibodies were donkey anti-mouse AlexaFluor647 (Invitrogen, 1:1 000) and donkey anti-rabbit AlexFluor594 (Invitrogen, 1:1 000). Flow cytometry analyses were performed on an AccuriC6 flow cytometer (BD Biosciences), and FACS on a FACSAria II (BD Biosciences). […]
(In flow cytometry, cells or beads pass a laser one at a time.)

In assay [2] the test system is Shh gene expression. Put plainly: Shh gene expression by qPCR in drug-treated A549 cells. In kind it is cell-based, human. The settings on record: post-GDC0449 treatment, 20 μM and 40 μM.
Method: RNA from unsorted cells was extracted with Qiagen Rneasy® Minikit (Quiagen), according to manufacturer instructions. RNA from sorted cells was extracted with Arcturus PicoPure RNA Isolation Kit (Life technologies). cDNA was then synthesized with iScript cDNA Synthesis Kit (Bio-Rad), according to manufacturer instructions. Commercial primers for Shh gene were obtained from Origen. Quantitative PCR was performed on Applied Biosystems' 7900HT Fast Real-Time PCR System, with triplicate for each gene analysis. Gene expression analysis was calculated with deltaCT method, with normalization with endogenous control (18s gene) (normalized gene expression level=2^−deltaCT(test gene)−deltaCT(18s)). For ddPCR, droplets creation, PCR and results analysis were performed according to manufacturer instructions (BioRad, QX100 ddPCR System, Quantasoft software). Results of ddPCR were expressed as FAM concentrations (copies/μl). RNA from unsorted cells was extracted with Qiagen's RNeasy Mini kit (Qiagen) according to the manufacturer's instructions. […] Quantitative RT-PCR (qRT-PCR) was performed on an Applied Biosystems 7900HT Fast Real-Time PCR System, in triplicate for each sample. Gene expression analysis was calculated with the delta-deltaCT method normalized to an endogenous control (18S gene). […] Results of ddPCR were expressed as FAM concentrations (copies/0).
Assay [3] deals with A549 cells. The assay can be described thus: Proliferation (MTS) and migration/wound healing assay on A549 cells. In kind it is cell-based, human. The settings on record: GDC0449.
Method: Proliferation assay was performed by MTS assay (CellTiter 96, Promega), according to manufacturer instructions. […] Migration assay was performed by wound healing assay. Monolayers of cells were: cultured, scratched, treated with media containing proteins and/or drugs at different concentrations: Shh protein, DMSO, and GDC0449, and recorded 0 and 24, 72 and 96 hours after treatment. MTS proliferation assays were performed (CellTiterGlo 96, Promega) according to the manufacturer's instructions. […] Wound healing assays were performed to study cell migration. Monolayers of cells were cultured, scratched, treated with media containing proteins and/or drugs at different concentrations: Shh protein, DMSO, and GDC0449-recorded at 0, 24, 72 and 96 hours after treatment.
For assay [4], the system named is Shh+ cells in A549 xenografts. Put plainly: Shh rate in A549 xenografts of drug-treated nude mice. In kind it is in vivo. As for the experimental part: For xenograft formation, female nude mice, 5 to 10 weeks old, were injected subcutaneously (SC) with 10 million A549 cells in the dorsal area in a volume of […]. For SC inoculation of sorted cells, 1,500 cells of A549 Shh+ or Shh− cells were injected in a volume of […]. For intra-veinous injection of sorted cells, 1,000 cells of A549 Shh+ or Shh− cells were injected in the tail vein. For the in vivo treatment assay, after xenograft formation, animals were injected intravenously with cisplatin (10 mg/kg weekly), docetaxel (10 mg/kg twice a week) or vehicle, and intraperitoneally with GDC0449 (20 mg/kg daily) or vehicle. Each group consisted in 4-5 mice. Tumor size was determined twice a week, and tumor volumes were calculated using width (x) and length (y) (x^2y/2, where x<y). Tumors were collected after mice euthanasia, and cell dissociation was performed as for fresh human samples (cf supra). Flow cytometry and FACS were done as described supra. All animals were cared in accord with University of California San Francisco (UCSF) guidelines.
For xenograft formation, 5-10 week-old female nude mice, were injected subcutaneously (SC) with 10 million A549 cells in the dorsal area in a volume of 100 μl. […] Tumor size was determined twice a week, and tumor volumes were calculated using width (x) and length (y) (x^2y/2, where x<y). […]

Assay [5] concerns A549 cells. The assay can be described thus: Tumor formation after inoculation of GDC0449 pre-treated A549 cells. The format is in vivo, nude mice. As to conditions: A549 cells pre-treated with 40 μM GDC0449, 1 million cells subcutaneous, versus DMSO pre-treated.
From the text: Then, nude mice were inoculated (sub-cutaneous) with 1 million treated cells (still adherent to the culture flask after treatment with GDC0449). […] Then, nude mice were inoculated subcutaneously with 1 million treated cells (still adherent to the culture flask after treatment with GDC0449).
The subject of assay [6] is advanced-stage SCLC. As to conditions: cisplatin/etoposide with or without vismodegib, first line; cited from earlier work.
The test system of assay [7] is most chemo-resistant NSCLC cell lines. The settings on record: previous study; cited from earlier work.

For the molecule `CS(=O)(=O)c1ccc(C(=O)Nc2ccc(Cl)c(-c3ccccn3)c2)c(Cl)c1` [GDC0449], in assay [1] (A549 cells, cisplatin or docetaxel plus GDC0449 40 μM), the “Shh rate post-chemotherapy combined with GDC0449 compared to chemotherapy alone” value is “significant decrease; also recorded: decreased significantly”. In assay [1] (GDC0449 40 μM, day 3), the “Shh+ cells in pre-inoculated A549 cells” value is listed as 0%. Besides, the “Shh gene expression (qPCR)” value in assay [2] is on record as “dramatic decrease”. In addition, the “cell proliferation and migration” value in assay [3] is “inhibition of cell proliferation and migration”. Also, in assay [4] (cisplatin 10 mg/kg IV weekly, then GDC0449 20 mg/kg IP daily), the “Shh rate in A549 xenografts, sequential assay” value was “significant reduction”. Further, in assay [4] (docetaxel 10 mg/kg twice a week plus GDC0449 20 mg/kg IP daily), the “Shh rate in A549 xenografts, combination treatment compared to chemotherapy alone” value was “significant reduction”. In assay [5], the “tumor formation from pre-treated cells” value is “completely inhibited”. In addition, the “response rate, PFS or OS” value in assay [6] is recorded as “No effect”. Also, in assay [7], the “effect with cisplatin in vitro” value is “synergistic effect”.
